Our source for the IC50 values is patent US20080021026A1, “BENZOTHIOPHENE INHIBITORS OF RHO KINASE” (priority 2006, published 2008).

The target of experiment [1] is T1, recombinant N-terminal GST-tagged human Rho kinase 1 (ROCK1, amino acids 1-535) (Homo sapiens, UniProt Q13464).
T1 construct: ROCK1, amino acids 1-535; purchased Invitrogen Inc. PV-3691
Nature of the experiment: In vitro Rho kinase assay (luciferase-based ATP consumption), ROCK1. The format is biochemical. The method in brief: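 ATP depletion measured by firefly luciferase luminescence after 2 h at 30 °C, with inhibition raising signal and activity expressed relative to H-1152P. Reaction: 0.82 μg/ml recombinant GST-tagged ROCK1 (aa 1-535), S6 peptide 100 μg/ml, […], pH 7.5 Tris buffer.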

The target in experiment [2] is T2, recombinant N-terminal GST-tagged human Rho kinase 2 (ROCK2, amino acids 1-552) (Homo sapiens, UniProt O75116).
T2 construct: ROCK2, amino acids 1-552; purchased Invitrogen Inc. PV3759
Nature of the experiment: In vitro Rho kinase assay (luciferase-based ATP consumption), ROCK2. Type of experiment: biochemical. The method in brief: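 Luciferase-based luminescence of leftover ATP after 2 h at 30 °C, where inhibition raises signal, reports activity of GST-tagged ROCK2 (aa 1-552) at 0.82 μg/ml. Conditions: S6 peptide 100 μg/ml, […], pH 7.5 Tris buffer. Results given as percent of H-1152P control activity.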

The mark [3] stands for this setting: recombinant GST-tagged human ROCK1, luciferase-based ATP consumption, read-out: ROCK1 IC50.
[4] abbreviates: recombinant GST-tagged human ROCK2, luciferase-based ATP consumption, read-out: ROCK2 IC50.

Each structure is given as a SMILES string. Like-named read-outs stand apart in the source and are kept apart here.

T2 sequence (O75116 1-552): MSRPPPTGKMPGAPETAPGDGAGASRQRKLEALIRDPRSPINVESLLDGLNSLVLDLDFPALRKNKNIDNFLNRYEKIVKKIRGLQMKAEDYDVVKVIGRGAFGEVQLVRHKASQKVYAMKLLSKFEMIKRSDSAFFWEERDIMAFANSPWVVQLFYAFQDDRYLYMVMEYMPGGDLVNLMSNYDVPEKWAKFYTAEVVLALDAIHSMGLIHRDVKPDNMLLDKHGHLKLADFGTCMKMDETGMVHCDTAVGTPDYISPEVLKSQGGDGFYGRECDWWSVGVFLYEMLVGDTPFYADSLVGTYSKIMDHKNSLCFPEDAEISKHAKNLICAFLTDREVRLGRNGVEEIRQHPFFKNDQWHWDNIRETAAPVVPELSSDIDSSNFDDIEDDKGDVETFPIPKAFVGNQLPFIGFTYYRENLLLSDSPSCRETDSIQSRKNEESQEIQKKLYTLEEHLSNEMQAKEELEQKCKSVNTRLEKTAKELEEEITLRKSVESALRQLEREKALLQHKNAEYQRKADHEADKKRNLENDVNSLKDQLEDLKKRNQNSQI
T1 sequence (Q13464 1-535): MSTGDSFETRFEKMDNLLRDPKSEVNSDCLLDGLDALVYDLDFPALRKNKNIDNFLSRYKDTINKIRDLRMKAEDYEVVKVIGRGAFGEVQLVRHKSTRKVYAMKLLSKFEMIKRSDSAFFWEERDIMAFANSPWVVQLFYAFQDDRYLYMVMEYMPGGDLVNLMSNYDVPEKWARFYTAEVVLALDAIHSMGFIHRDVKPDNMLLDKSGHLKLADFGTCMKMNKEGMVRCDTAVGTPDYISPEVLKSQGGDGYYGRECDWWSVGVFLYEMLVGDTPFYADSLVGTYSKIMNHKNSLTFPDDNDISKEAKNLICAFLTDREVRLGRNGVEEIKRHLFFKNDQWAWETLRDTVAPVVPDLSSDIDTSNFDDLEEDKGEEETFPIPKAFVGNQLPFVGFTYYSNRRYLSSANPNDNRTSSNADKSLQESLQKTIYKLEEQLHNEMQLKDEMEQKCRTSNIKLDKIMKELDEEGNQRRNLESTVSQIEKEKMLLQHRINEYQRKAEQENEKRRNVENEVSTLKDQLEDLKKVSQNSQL

On to `Cc1c(-c2ccnc(N)n2)sc2ccc(CNC(=O)c3ccc(Cl)cc3[N+](=O)[O-])cc12` [Example 267, Cc1c(sc2ccc(CNC(═O)c3ccc(Cl)cc3[N+]([O−])═O)cc12)-c4ccnc(N)n4], for which the IC50 was over 5 µM in experiment [1] (setting [3]) and under 5 µM in experiment [2] (setting [4]).
On to `Cc1c(-c2ccnc(N)n2)sc2ccc(CNC(=O)c3cn(C)cn3)cc12` [Example 114, Cc1c(sc2ccc(CNC(═O)c3cn(C)cn3)cc12)-c4ccnc(N)n4], for which the IC50 in experiment [1] (setting [3]) was over 5 µM; in experiment [2] (setting [4]) it was under 5 µM.
The matching figures for `Cc1ccc(C)c(C(=O)NCc2ccc3sc(-c4ccnc(N)n4)c(C)c3c2)c1` [Example 134, Cc1ccc(C)c(c1)C(═O)NCc2ccc3sc(c(C)c3c2)-c4ccnc(N)n4]: under 5 µM and under 5 µM.
The matching figures for `COc1ccc(C(=O)NCc2ccc3sc(-c4ccnc(N)n4)c(C)c3c2)c(O)c1` [Example 183, COc1ccc(C(═O)NCc2ccc3sc(c(C)c3c2)-c4ccnc(N)n4)c(O)c1]: over 5 µM and under 5 µM.
The matching figures for `CC(=O)NCc1ccc2sc(-c3ccnc(N)n3)c(C)c2c1` [Example 95, CC(═O)NCc1ccc2sc(c(C)c2c1)-c3ccnc(N)n3]: over 5 µM and over 5 µM.
Regarding `COc1cc(C(=O)NCc2ccc3sc(-c4ccnc(N)n4)c(C)c3c2)cc(Cl)n1` [Example 235, COc1cc(cc(Cl)n1)C(═O)NCc2ccc3sc(c(C)c3c2)-c4ccnc(N)n4], the half-inhibitory concentration (IC50) in experiment [1] (setting [3]) and in experiment [2] (setting [4]) was under 5 µM each time.
Take `Cc1c(-c2ccnc(N)n2)sc2ccc(CNC(=O)c3cc(Cl)c(O)c(Cl)c3)cc12` [Example 275, Cc1c(sc2ccc(CNC(═O)c3cc(Cl)c(O)c(Cl)c3)cc12)-c4ccnc(N)n4]: the IC50 in experiment [1] (setting [3]) is under 5 µM; in experiment [2] (setting [4]), over 5 µM.
For `CC(=O)Oc1cccc(Cc2ccc3sc(-c4ccnc(N)n4)c(C)c3c2)c1` [Example 28, 3-((2-(2-Aminopyrimidin-4-yl)-3-methylbenzo[b]thiophen-5-yl)methyl)phenyl acetate] the same measures were under 5 µM and under 5 µM.
For `Cc1c(-c2ccnc(N)n2)sc2ccc(CNC(=O)c3ccc(Cl)c([N+](=O)[O-])c3)cc12` [Example 268, Cc1c(sc2ccc(CNC(═O)c3ccc(Cl)c(c3)[N+]([O−])═O)cc12)-c4ccnc(N)n4] the same measures were over 5 µM and under 5 µM.
For `CCC(C)C(NC(=O)OC(C)(C)C)C(=O)NCc1ccc2sc(-c3ccnc(N)n3)c(C)c2c1` (centres unmarked) [Example 322, CCC(C)[C](NC(═O)OC(C)(C)C)C(═O)NCc1ccc2sc(c(C)c2c1)-c3ccnc(N)n3] the same measures were under 5 µM and over 5 µM.
`Cc1c(-c2ccnc(N)n2)sc2ccc(CNC(=O)c3cccc(C#N)c3)cc12` [Example 127, Cc1c(sc2ccc(CNC(═O)c3cccc(c3)C#N)cc12)-c4ccnc(N)n4]: the IC50 in experiment [1] (setting [3]) and in experiment [2] (setting [4]) was under 5 µM each time.
Take `COc1cc(C(=O)Nc2ccc3sc(-c4ccnc(N)n4)c(C)c3c2)cc(OC)c1OC` [Example 73, N-(2-(2-Aminopyrimidin-4-yl)-3-methylbenzo[b]thiophen-5-yl)-3,4,5-trimethoxy benzamide]: the IC50 in experiment [1] (setting [3]) and in experiment [2] (setting [4]) was over 5 µM in each case.
As for `Cc1ccc(C(=O)NCc2ccc3sc(-c4ccnc(N)n4)c(C)c3c2)cc1` [Example 120, Cc1ccc(cc1)C(═O)NCc2ccc3sc(c(C)c3c2)-c4ccnc(N)n4], the results for the 50% inhibitory concentration (IC50) in experiment [1] (setting [3]) and in experiment [2] (setting [4]) were over 5 µM and under 5 µM, respectively.
In the case of `Cc1c(-c2ccnc(N)n2)sc2ccc(CNC(=O)C(C(C)C)N(C)C(=O)OC(C)(C)C)cc12` (centres unmarked) [Example 312, CC(C)C(N(C)C(═O)OC(C)(C)C)C(═O)NCc1ccc2sc(c(C)c2c1)-c3ccnc(N)n3], the IC50 in experiment [1] (setting [3]) and in experiment [2] (setting [4]) was over 5 µM throughout.
On to `Cc1c(-c2ccnc(N)n2)sc2ccc(CNC(=O)c3cc(Cl)ccc3O)cc12` [Example 191, Cc1c(sc2ccc(CNC(═O)c3cc(Cl)ccc3O)cc12)-c4ccnc(N)n4], for which the IC50 is over 5 µM in experiment [1] (setting [3]) and under 5 µM in experiment [2] (setting [4]).
The matching figures for `Cc1c(-c2ccnc(N)n2)sc2ccc(Cc3cccc(C(=O)NCCCN4CCOCC4)c3)cc12` [Example 49, 3-((2-(2-Aminopyrimidin-4-yl)-3-methylbenzo[b]thiophen-5-yl)methyl)-N-(3-morpholinopropyl)benzamide]: under 5 µM and under 5 µM.
For `Cc1c(-c2ccnc(N)n2)sc2ccc(CNC(=O)C(C)c3ccc(O)cc3)cc12` (centres unmarked) [Example 178, CC(C(═O)NCc1ccc2sc(c(C)c2c1)-c3ccnc(N)n3)c4ccc(O)cc4] the same measures were under 5 µM and under 5 µM.
For `Cc1c(-c2ccnc(N)n2)sc2ccc(CNC(=O)C(C)c3ccc(CC(C)C)cc3)cc12` (centres unmarked) [Example 274, CC(C)Cc1ccc(cc1)C(C)C(═O)NCc2ccc3sc(c(C)c3c2)-c4ccnc(N)n4] the same measures were over 5 µM and over 5 µM.
Consider `Cc1c(-c2ccnc(N)n2)sc2ccc(C(=O)N3CCC(N)C3)cc12` (centres unmarked) [Example 23, (2-(2-Aminopyrimidin-4-yl)-3-methylbenzo[b]thiophen-5-yl)(3-aminopyrrolidin-1-yl)methanone], for which the IC50 in experiment [1] (setting [3]) and in experiment [2] (setting [4]) was under 5 µM throughout.
Turning to `COc1ccc(OC)c(Cc2ccc3sc(-c4ccnc(N)n4)c(C)c3c2)c1` [Example 38, 4-(5-(2,5-Dimethoxybenzyl)-3-methylbenzo[b]thiophen-2-yl)pyrimidin-2-amine], the IC50 in experiment [1] (setting [3]) and in experiment [2] (setting [4]) was over 5 µM in each case.
As to `Cc1c(-c2ccnc(N)n2)sc2ccc(CNC(=O)c3cc(O)c(O)c(O)c3)cc12` [Example 185, Cc1c(sc2ccc(CNC(═O)c3cc(O)c(O)c(O)c3)cc12)-c4ccnc(N)n4], the IC50 in experiment [1] (setting [3]) is over 5 µM; in experiment [2] (setting [4]) it was under 5 µM.
For `CCCCOc1ccc(C(=O)NCc2ccc3sc(-c4ccnc(N)n4)c(C)c3c2)cc1` [Example 257, CCCCOc1ccc(cc1)C(═O)NCc2ccc3sc(c(C)c3c2)-c4ccnc(N)n4] the same measures were over 5 µM and over 5 µM.
For `Cc1c(-c2ccnc(N)n2)sc2ccc(CNC(=O)c3ccc(C#N)cc3)cc12` [Example 126, Cc1c(sc2ccc(CNC(═O)c3ccc(cc3)C#N)cc12)-c4ccnc(N)n4] the same measures were under 5 µM and under 5 µM.
`COc1ccc(Br)c(C(=O)NCc2ccc3sc(-c4ccnc(N)n4)c(C)c3c2)c1` [Example 310, COc1ccc(Br)c(c1)C(═O)NCc2ccc3sc(c(C)c3c2)-c4ccnc(N)n4]: the IC50 is over 5 µM in experiment [1] (setting [3]) and under 5 µM in experiment [2] (setting [4]).
In the case of `Cc1c(-c2ccnc(N)n2)sc2ccc(CNC(=O)c3cccc(Cl)c3Cl)cc12` [Example 245, Cc1c(sc2ccc(CNC(═O)c3cccc(Cl)c3Cl)cc12)-c4ccnc(N)n4], the IC50 was over 5 µM in experiment [1] (ROCK1 IC50, recombinant GST-tagged human ROCK1, luciferase-based ATP consumption) and under 5 µM in experiment [2] (ROCK2 IC50, recombinant GST-tagged human ROCK2, luciferase-based ATP consumption).
For `Cc1c(-c2ccnc(N)n2)sc2ccc(CNC(=O)Cc3ccccc3O)cc12` [Example 35, N-((2-(2-Aminopyrimidin-4-yl)-3-methylbenzo[b]thiophen-5-yl)methyl)-2-(2-hydroxyphenyl)acetamide], the IC50 in experiment [1] (setting [3]) and in experiment [2] (setting [4]) was under 5 µM in each case.
For `Cc1c(-c2ccnc(N)n2)sc2ccc(Cc3cccc(C(=O)N4CCN(C)CC4)c3)cc12` [Example 50, (3-((2-(2-Aminopyrimidin-4-yl)-3-methylbenzo[b]thiophen-5-yl)methyl)phenyl)(4-methylpiperazin-1-yl)methanone], the IC50 in experiment [1] (setting [3]) and in experiment [2] (setting [4]) was under 5 µM each time.
`Cc1c(-c2ccnc(N)n2)sc2ccc(CNC(=O)c3ccc(C=O)cc3)cc12` [Example 130, Cc1c(sc2ccc(CNC(═O)c3ccc(C═O)cc3)cc12)-c4ccnc(N)n4]: the IC50 in experiment [1] (setting [3]) and in experiment [2] (setting [4]) was under 5 µM in each case.
For `COc1ccc(C(=O)NCc2ccc3sc(-c4ccnc(N)n4)c(C)c3c2)c(OC)c1` [Example 219, COc1ccc(C(═O)NCc2ccc3sc(c(C)c3c2)-c4ccnc(N)n4)c(OC)c1], the half-inhibitory concentration (IC50) in experiment [1] (setting [3]) is over 5 µM; in experiment [2] (setting [4]) it was under 5 µM.
For `Cc1c(-c2ccnc(N)n2)sc2ccc(CNC(=O)Cc3c(F)cccc3F)cc12` [Example 188, Cc1c(sc2ccc(CNC(═O)Cc3c(F)cccc3F)cc12)-c4ccnc(N)n4] the same measures were under 5 µM and under 5 µM.
For `Cc1c(-c2ccnc(N)n2)sc2ccc(Nc3ccncc3)cc12` [Example 66, 4-(3-Methyl-5-(pyridin-4-ylamino)benzo[b]thiophen-2-yl)pyrimidin-2-amine] the same measures were under 5 µM and under 5 µM.
For `Cc1c(-c2ccnc(N)n2)sc2ccc(CNC(=O)c3cscn3)cc12` [Example 116, Cc1c(sc2ccc(CNC(═O)c3cscn3)cc12)-c4ccnc(N)n4] the same measures were over 5 µM and under 5 µM.
Turning to `Cc1c(-c2ccnc(N)n2)sc2ccc(Nc3cccc(OCc4ccccc4)c3)cc12` [Example 55, 4-(5-(3-(Benzyloxy)phenylamino)-3-methylbenzo[b]thiophen-2-yl)pyrimidin-2-amine], the IC50 in experiment [1] (setting [3]) and in experiment [2] (setting [4]) was under 5 µM throughout.
For `COc1ccc(C(=O)NCc2ccc3sc(-c4ccnc(N)n4)c(C)c3c2)c(OC)c1OC` [Example 280, COc1ccc(C(═O)NCc2ccc3sc(c(C)c3c2)-c4ccnc(N)n4)c(OC)c1OC], the results for the half-maximal inhibitory concentration (IC50) in experiment [1] (setting [3]) and in experiment [2] (setting [4]) were over 5 µM and under 5 µM, respectively.
